According to patent US20090181963A1, “3H-[1,2,3]TRIAZOLO[4,5-D]PYRIMIDINE COMPOUNDS, THEIR USE AS mTOR KINASE AND PI3 KINASE INHIBITORS, AND THEIR [sequence]” (Wyeth, priority 2008, published 2009):

Experiments:
PI3 Kinase γ = PI3 Kinase γ (Homo sapiens, UniProt P48736); test: Fluorescence polarization assay for PI3K (PI3 Kinase γ); format: biochemical; details: diC8-PI(4,5)P2 substrate, 25 μM ATP, one hour at 25° C.
PI3 Kinase α = PI3 Kinase α (Homo sapiens, UniProt P42336); test: Fluorescence polarization assay for PI3K (PI3 Kinase α); format: biochemical; details: diC8-PI(4,5)P2 substrate, 25 μM ATP, one hour at 25° C.
Sequence of PI3 Kinase α (P42336 whole entry): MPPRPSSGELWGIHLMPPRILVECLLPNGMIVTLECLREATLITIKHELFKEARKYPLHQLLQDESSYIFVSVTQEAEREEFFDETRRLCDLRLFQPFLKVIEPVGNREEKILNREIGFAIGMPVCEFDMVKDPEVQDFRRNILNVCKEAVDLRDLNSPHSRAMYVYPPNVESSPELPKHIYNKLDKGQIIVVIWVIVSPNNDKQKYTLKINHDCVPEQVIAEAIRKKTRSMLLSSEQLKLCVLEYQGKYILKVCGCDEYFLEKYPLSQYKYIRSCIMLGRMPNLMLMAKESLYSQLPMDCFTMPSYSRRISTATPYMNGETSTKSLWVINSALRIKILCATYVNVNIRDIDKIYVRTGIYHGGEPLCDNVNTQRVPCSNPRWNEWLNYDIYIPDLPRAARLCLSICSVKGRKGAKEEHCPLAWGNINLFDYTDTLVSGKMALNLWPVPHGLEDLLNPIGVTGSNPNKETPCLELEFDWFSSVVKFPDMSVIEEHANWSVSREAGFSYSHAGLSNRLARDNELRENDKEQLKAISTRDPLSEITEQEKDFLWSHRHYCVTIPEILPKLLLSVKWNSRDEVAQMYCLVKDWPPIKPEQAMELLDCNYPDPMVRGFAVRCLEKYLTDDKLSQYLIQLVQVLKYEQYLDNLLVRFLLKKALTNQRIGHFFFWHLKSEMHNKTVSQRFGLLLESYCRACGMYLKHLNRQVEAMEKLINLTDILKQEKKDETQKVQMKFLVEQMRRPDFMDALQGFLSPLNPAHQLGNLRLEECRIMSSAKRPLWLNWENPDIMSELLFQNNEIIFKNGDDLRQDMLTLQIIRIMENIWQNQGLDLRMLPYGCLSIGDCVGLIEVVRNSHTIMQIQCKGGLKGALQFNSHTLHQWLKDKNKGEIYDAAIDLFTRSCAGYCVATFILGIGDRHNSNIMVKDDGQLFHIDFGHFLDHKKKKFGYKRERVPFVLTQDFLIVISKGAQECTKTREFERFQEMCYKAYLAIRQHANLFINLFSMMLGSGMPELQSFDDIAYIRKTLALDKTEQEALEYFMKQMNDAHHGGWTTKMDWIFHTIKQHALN
Sequence of PI3 Kinase α (P27986 whole entry partner): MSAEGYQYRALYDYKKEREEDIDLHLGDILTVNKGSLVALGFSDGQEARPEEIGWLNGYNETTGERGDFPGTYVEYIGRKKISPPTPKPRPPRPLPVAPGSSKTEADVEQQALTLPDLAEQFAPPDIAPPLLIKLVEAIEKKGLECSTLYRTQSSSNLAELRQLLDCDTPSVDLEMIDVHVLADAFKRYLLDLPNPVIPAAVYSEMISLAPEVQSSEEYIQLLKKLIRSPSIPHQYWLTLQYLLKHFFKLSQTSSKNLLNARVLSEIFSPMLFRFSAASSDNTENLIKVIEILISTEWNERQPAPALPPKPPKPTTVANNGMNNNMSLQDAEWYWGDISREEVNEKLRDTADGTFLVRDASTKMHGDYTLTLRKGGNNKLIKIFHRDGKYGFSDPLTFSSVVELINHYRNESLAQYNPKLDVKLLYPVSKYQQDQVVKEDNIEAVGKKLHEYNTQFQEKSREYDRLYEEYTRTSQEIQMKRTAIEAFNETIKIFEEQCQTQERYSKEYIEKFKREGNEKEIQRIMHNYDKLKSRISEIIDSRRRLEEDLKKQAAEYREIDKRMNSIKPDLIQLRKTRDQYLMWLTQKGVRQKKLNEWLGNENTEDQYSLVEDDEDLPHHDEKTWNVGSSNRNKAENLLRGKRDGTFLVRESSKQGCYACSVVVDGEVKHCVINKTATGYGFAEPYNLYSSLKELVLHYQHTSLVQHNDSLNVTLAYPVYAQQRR
Method: Nunc 384 well black polypropylene fluorescent plates were used for PI3K assays. Reactions were quenched by the addition of EDTA to a final concentration of 10 μM. Final reaction volumes were 10 ml. […] Reactions were allowed to proceed for one hour at 25° C. After I hour, GST-tagged GRP1 (general receptor for phosphoinositides) PH domain fusion protein was added to a final concentration of 100 nM, and BODIPY-TMRI(1,3,4,5)P4 (Echelon) was also added to a final concentration of 5 nM. Final sample volumes were 25 μl with a final DMSO concentration of 0.8%. Assay Plates were read on PerkinElmer Envision plate readers with appropriate filters for Tamra [BODIPY-TMRI(1,3,4,5)P4]. Data obtained were used to calculate enzymatic activity and enzyme inhibition by inhibitor compounds.

Sequence of PI3 Kinase γ (P48736 whole entry): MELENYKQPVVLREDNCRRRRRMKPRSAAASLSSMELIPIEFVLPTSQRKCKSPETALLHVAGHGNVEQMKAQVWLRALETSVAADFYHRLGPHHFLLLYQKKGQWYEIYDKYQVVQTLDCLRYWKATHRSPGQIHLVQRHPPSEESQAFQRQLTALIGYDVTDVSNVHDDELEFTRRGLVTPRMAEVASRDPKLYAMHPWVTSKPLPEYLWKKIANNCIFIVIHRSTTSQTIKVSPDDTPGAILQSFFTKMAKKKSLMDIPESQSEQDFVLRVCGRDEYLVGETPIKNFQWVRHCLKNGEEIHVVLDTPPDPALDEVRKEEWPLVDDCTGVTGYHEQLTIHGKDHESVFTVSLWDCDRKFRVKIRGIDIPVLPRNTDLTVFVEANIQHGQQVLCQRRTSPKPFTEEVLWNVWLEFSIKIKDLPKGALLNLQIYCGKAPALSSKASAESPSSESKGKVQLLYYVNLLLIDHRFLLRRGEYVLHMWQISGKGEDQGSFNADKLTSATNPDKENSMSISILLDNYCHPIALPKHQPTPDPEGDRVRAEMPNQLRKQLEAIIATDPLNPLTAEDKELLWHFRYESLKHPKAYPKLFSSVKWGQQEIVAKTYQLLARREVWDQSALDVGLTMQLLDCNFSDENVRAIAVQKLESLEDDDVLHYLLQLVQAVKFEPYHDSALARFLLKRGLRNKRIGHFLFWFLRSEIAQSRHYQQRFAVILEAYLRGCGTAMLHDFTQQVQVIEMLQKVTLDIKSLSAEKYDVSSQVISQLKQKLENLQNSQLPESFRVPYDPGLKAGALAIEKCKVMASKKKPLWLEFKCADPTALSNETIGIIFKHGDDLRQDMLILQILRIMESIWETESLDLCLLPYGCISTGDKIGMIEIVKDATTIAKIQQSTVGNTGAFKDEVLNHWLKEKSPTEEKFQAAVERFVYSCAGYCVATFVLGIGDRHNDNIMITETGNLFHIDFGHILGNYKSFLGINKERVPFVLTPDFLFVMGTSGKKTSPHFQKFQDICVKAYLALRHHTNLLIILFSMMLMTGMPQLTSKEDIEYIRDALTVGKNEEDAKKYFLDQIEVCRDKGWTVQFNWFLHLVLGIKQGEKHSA

SMILES | IC50 (PI3 Kinase γ) [nM] | IC50 (PI3 Kinase α) [nM]
COC(=O)c1ccc(Cn2nnc3c(N4CCOCC4)nc(-c4cccc(O)c4)nc32)cc1 [Example 241, methyl 4-{[5-(3-hydroxyphenyl)-7-morpholin-4-yl-3H-[1,2,3]triazolo[4,5-d]pyrimidin-3-yl]methyl}benzoate] | 4910 | 630
CCn1nnc2c(N3CCOCC3)nc(-c3ccc(NC(=O)Nc4ccc(C(=O)NCCCN(C)C)cc4)cc3)nc21 [Example 47, N-[3-(dimethylamino)propyl]-4-({[4-(3-ethyl-7-morpholin-4-yl-3H-[1,2,3]triazolo[4,5-d]pyrimidin-5-yl)phenyl]carbamoyl}amino)benzamide] | 9 | < 2.7
CN(C)CCCNC(=O)c1ccc(Cn2nnc3c(N4CCOCC4)nc(-c4cccc(O)c4)nc32)cc1 [Example 215, N-[3-(dimethylamino)propyl]-4-{[5-(3-hydroxyphenyl)-7-morpholin-4-yl-3H-[1,2,3]triazolo[4,5-d]pyrimidin-3-yl]methyl}benzamide] | 4030 | 335
CC(=O)NCCn1nnc2c(N3CCOCC3)nc(-c3cccc(O)c3)nc21 [Example 7, N-{2-[5-(3-hydroxyphenyl)-7-morpholin-4-yl-3H-[1,2,3]triazolo[4,5-d]pyrimidin-3-yl]ethyl}acetamide] | 406 | 171
Cn1cccc1CN1CCC(n2nnc3c(N4CCOCC4)nc(-c4cncc(O)c4)nc32)CC1 [Example 19, 5-(3-{1-[(1-methyl-1H-pyrrol-2-yl)methyl]piperidin-4-yl}-7-morpholin-4-yl-3H-[1,2,3]triazolo[4,5-d]pyrimidin-5-yl)pyridin-3-ol] | 277 | 83
CCn1nnc2c(N3CCOC[C@@H]3C)nc(-c3ccc(NC(=O)Nc4ccc(CO)cc4)cc3)nc21 [Example 70, (S)-1-(4-(3-ethyl-7-(3-methylmorpholino)-3H-[1,2,3]triazolo[4,5-d]pyrimidin-5-yl)phenyl)-3-(4-(hydroxymethyl)phenyl)urea] | 102 | 5.5
CNC(=O)Nc1ccc(-c2nc(N3CCOCC3)c3nnn(C4CCN(Cc5ccccc5)CC4)c3n2)cc1 [Example 6, 1-{4-[3-(1-benzylpiperidin-4-yl)-7-morpholin-4-yl-3H-[1,2,3]triazolo[4,5-d]pyrimidin-5-yl]phenyl}-3-methylurea] | 620 | 100
Cn1nnc2c(N3CCOCC3)nc(-c3ccc(NC(=O)Nc4cccnc4)cc3)nc21 [Example 199, 1-[4-(3-methyl-7-morpholin-4-yl-3H-[1,2,3]triazolo[4,5-d]pyrimidin-5-yl)phenyl]-3-pyridin-3-ylurea] | 49 | 10.5
O=C(NCc1ccccc1)c1ccc(Cn2nnc3c(N4CCOCC4)nc(-c4cccc(O)c4)nc32)cc1 [Example 212, N-benzyl-4-{[5-(3-hydroxyphenyl)-7-morpholin-4-yl-3H-[1,2,3]triazolo[4,5-d]pyrimidin-3-yl]methyl}benzamide] | 766 | 78
OCc1cccc(-c2nc(N3CCOCC3)c3nnn(CCCN4CCCC4)c3n2)c1 [Example 10, {3-[7-morpholin-4-yl-3-(3-pyrrolidin-1-ylpropyl)-3H-[1,2,3]triazolo[4,5-d]pyrimidin-5-yl]phenyl}methanol] | 154 | 132
CC(C)(C)OC(=O)NC1CCN(C(=O)c2ccc(Cn3nnc4c(N5CCOCC5)nc(-c5cccc(O)c5)nc43)cc2)CC1 [Example 209, tert-butyl [1-(4-{[5-(3-hydroxyphenyl)-7-morpholin-4-yl-3H-[1,2,3]triazolo[4,5-d]pyrimidin-3-yl]methyl}benzoyl)piperidin-4-yl]carbamate] | 1670 | 447
O=C(c1ccc(Cn2nnc3c(N4CCOCC4)nc(-c4cccc(O)c4)nc32)cc1)N1CCCC1 [Example 228, 3-{7-morpholin-4-yl-3-[4-(pyrrolidin-1-ylcarbonyl)benzyl]-3H-[1,2,3]triazolo[4,5-d]pyrimidin-5-yl}phenol] | 544 | 911
O=C(Nc1ccc(CCO)cc1)Nc1ccc(-c2nc(N3CCOCC3)c3nnn(CC(F)(F)F)c3n2)cc1 [Example 138, 1-[4-(2-hydroxyethyl)phenyl]-3-{4-[7-morpholin-4-yl-3-(2,2,2-trifluoroethyl)-3H-[1,2,3]triazolo[4,5-d]pyrimidin-5-yl]phenyl}urea] | 12.5 | 3
CC(C)(C)OC(=O)N1CC(Cn2nnc3c(N4CCOCC4)nc(-c4ccc(N)cc4)nc32)C1 [Example 187, tert-Butyl 3-{[5-(4-aminophenyl)-7-morpholin-4-yl-3H-[1,2,3]triazolo[4,5-d]pyrimidin-3-yl]methyl}azetidine-1-carboxylate] | 12000 | 2080
CCCCNC(=O)c1ccc(NC(=O)Nc2ccc(-c3nc(N4CCOCC4)c4nnn(CC)c4n3)cc2)cc1 [Example 62, N-butyl-4-({[4-(3-ethyl-7-morpholin-4-yl-3H-[1,2,3]triazolo[4,5-d]pyrimidin-5-yl)phenyl]carbamoyl}amino)benzamide] | 33 | 6
CCn1nnc2c(N3CCOCC3)nc(-c3ccc(NC(=O)Nc4nccs4)cc3)nc21 [Example 37, 1-[4-(3-ethyl-7-morpholin-4-yl-3H-[1,2,3]triazolo[4,5-d]pyrimidin-5-yl)phenyl]-3-(1,3-thiazol-2-yl)urea] | 156 | 73.5

More lines, in order of falling IC50 (PI3 Kinase γ), values ahead:

IC50 (PI3 Kinase γ) [nM] | IC50 (PI3 Kinase α) [nM] | SMILES
10400 | 5630 | O=C(Nc1ccc(-c2nc(N3CCOCC3)c3nnn(C4CCN(Cc5ccccc5)CC4)c3n2)cc1)Nc1cccc(Cl)c1 [Example 170, 1-{4-[3-(1-benzylpiperidin-4-yl)-7-morpholin-4-yl-3H-[1,2,3]triazolo[4,5-d]pyrimidin-5-yl]phenyl}-3-(3-chlorophenyl)urea]
3630 | 240 | COC(=O)c1cccc(-n2nnc3c(N4CCOCC4)nc(-c4cccc(O)c4)nc32)c1 [Example 115, methyl 3-[5-(3-hydroxyphenyl)-7-morpholin-4-yl-3H-[1,2,3]triazolo[4,5-d]pyrimidin-3-yl]benzoate]
1910 | 90 | C[C@H](NC(=O)c1ccc(Cn2nnc3c(N4CCOCC4)nc(-c4cccc(O)c4)nc32)cc1)c1ccccc1 [Example 224, 4-{[5-(3-hydroxyphenyl)-7-morpholin-4-yl-3H-[1,2,3]triazolo[4,5-d]pyrimidin-3-yl]methyl}-N-[(1S)-1-phenylethyl]benzamide]
1540 | 386 | CN(C)CCNC(=O)c1ccc(Cn2nnc3c(N4CCOCC4)nc(-c4cccc(O)c4)nc32)cc1 [Example 214, N-[2-(dimethylamino)ethyl]-4-{[5-(3-hydroxyphenyl)-7-morpholin-4-yl-3H-[1,2,3]triazolo[4,5-d]pyrimidin-3-yl]methyl}benzamide]
1500 | 318 | CN(CCNC(=O)Nc1ccc(-c2nc(N3CCOCC3)c3nnn(CC(F)(F)F)c3n2)cc1)C(=O)OC(C)(C)C [Example 139, tert-butyl methyl{2-[({4-[7-morpholin-4-yl-3-(2,2,2-trifluoroethyl)-3H-[1,2,3]triazolo[4,5-d]pyrimidin-5-yl]phenyl}carbamoyl)amino]ethyl}carbamate]
1400 | 420 | CC(C)(C)NC(=O)c1ccc(Cn2nnc3c(N4CCOCC4)nc(-c4cccc(O)c4)nc32)cc1 [Example 222, N-tert-butyl-4-{[5-(3-hydroxyphenyl)-7-morpholin-4-yl-3H-[1,2,3]triazolo[4,5-d]pyrimidin-3-yl]methyl}benzamide]
734 | 59 | Oc1cccc(-c2nc(N3CCOCC3)c3nnn(C4CCN(Cc5ccc(F)cc5)CC4)c3n2)c1 [Example 147, 3-{3-[1-(4-fluorobenzyl)piperidin-4-yl]-7-morpholin-4-yl-3H-[1,2,3]triazolo[4,5-d]pyrimidin-5-yl}phenol]
407 | 143 | CC(C)(C)C(=O)Nc1ncccc1CN1CCC(n2nnc3c(N4CCOCC4)nc(-c4cncc(O)c4)nc32)CC1 [Example 25, N-[3-({4-[5-(5-hydroxypyridin-3-yl)-7-morpholin-4-yl-3H-[1,2,3]triazolo[4,5-d]pyrimidin-3-yl]piperidin-1-yl}methyl)pyridin-2-yl]-2,2-dimethylpropanamide]
370 | 217 | CN(C)CCCOc1ccc(CN2CCC(n3nnc4c(N5CCOCC5)nc(-c5cncc(O)c5)nc43)CC2)cc1 [Example 17, 5-[3-(1-{4-[3-(dimethylamino)propoxy]benzyl}piperidin-4-yl)-7-morpholin-4-yl-3H-[1,2,3]triazolo[4,5-d]pyrimidin-5-yl]pyridin-3-ol]
70.3 | 9 | CCn1nnc2c(N3CCOC[C@@H]3C)nc(-c3ccc(NC(=O)Nc4ccc(CCO)cc4)cc3)nc21 [Example 68, (S)-1-(4-(3-ethyl-7-(3-methylmorpholino)-3H-[1,2,3]triazolo[4,5-d]pyrimidin-5-yl)phenyl)-3-(4-(2-hydroxyethyl)phenyl)urea]
34.5 | 3 | CC(C)n1nnc2c(N3CCOCC3)nc(-c3ccc(NC(=O)Nc4ccc(CO)cc4)cc3)nc21 [Example 84, 1-(4-Hydroxymethyl-phenyl)-3-[4-(3-isopropyl-7-morpholin-4-yl-3H-[1,2,3]triazolo[4,5-d]pyrimidin-5-yl)-phenyl]-urea]
30 | 6.5 | O=C(Nc1ccc(-c2nc(N3CCOCC3)c3nnn(CC(F)(F)F)c3n2)cc1)Nc1cccs1 [Example 141, 1-{4-[7-morpholin-4-yl-3-(2,2,2-trifluoroethyl)-3H-[1,2,3]triazolo[4,5-d]pyrimidin-5-yl]phenyl}-3-(2-thienyl)urea]
25.5 | 2 | O=C(Nc1ccncc1)Nc1ccc(-c2nc(N3CCOCC3)c3nnn(CC(F)(F)F)c3n2)cc1 [Example 134, 1-{4-[7-morpholin-4-yl-3-(2,2,2-trifluoroethyl)-3H-[1,2,3]triazolo[4,5-d]pyrimidin-5-yl]phenyl}-3-pyridin-4-ylurea]
